This note sets out measurements from patent publication US8933224B2, “Triazine derivatives” (Pfizer Inc., priority 2013, dated 2015).

In assay [1] the target is human recombinant PDE10 enzyme (PDE10A) (Homo sapiens, UniProt Q9Y233). In words: PDE10 scintillation proximity assay (SPA), inhibition of human recombinant PDE10 enzyme activity. The note with it: geometric mean of 2-4 determinations unless otherwise indicated (b: ≧5 determinations; c: single determination). It is filed as biochemical. The procedure:
PDE10 activity was measured using a scintillation assay (SPA-based method) similar to that previously described by Seeger, T. F. et al., Brain Research 985 (2003) 113-126. The compounds' relative activity as PDE10 inhibitors was investigated by assaying a fixed amount of enzyme in the presence of the test compound and low substrate concentration (cAMP) such that an IC50 could be determined. […] The assay is performed in a 384-well format with 50 μL assay buffer (50 mM TRIS pH 7.5; 1.3 mM MgCl2; 0.01% Brij) containing enough PDE10 to convert ˜20% of 20 nM ^3H-cAMP, and a range of inhibitors. Reactions are incubated for 30 minutes at 25° C. The addition of 20 μL of 8 mg/ml yttrium silicate SPA beads (PerkinElmer) stops the reaction. The plates are sealed (TopSeal, PerkinElmer) and the beads are allowed to settle for 8 hrs, after which they are read on the Trilux Microbeta overnight. ^1Rat enzyme preparation:^2Human enzyme preparation:
Human PDE10A coding sequence (amino acids 21 to 797 from the sequence with accession number NP_001124162.1) was synthesized using codon optimization for insect expression and cloned into the baculovirus expression vector pFastBac (Invitrogen) engineered to include a N-terminal His6 affinity tag to aid in purification as described in Seeger, T. F. et al., Brain Research 985 (2003) 113-126. The recombinant Bacmid was isolated and used to transfect sf9 insect cells to generate a viral stock. To generate cell paste for purification, sf21 cells were infected with the virus stock and cells were harvested 72 hours after infection as described in Seeger, T. F. et al., Brain Research 985 (2003) 113-126. Insect cell paste was lysed and after centrifugation, the supernatant was chromatographed on Ni-NTA agarose (Qiagen) as described in Seeger, T. F. et al., Brain Research 985 (2003) 113-126. Ni-NTA agarose eluting fractions containing PDE10A were chromatographed on Superdex 200 (GE Healthcare Life Sciences) in 50 mM Tris HCl pH 7.5, 150 mM NaCl, 1 mM EDTA, 10% glycerol, 2 mM TCEP, 1.5 mM benzamidine, EDTA-free protease inhibitors (Roche), and 5 μM E-64.

A further assay concerns the target rat PDE10 enzyme (Rattus norvegicus (Rat), UniProt Q9QYJ6). The experiment in a line: PDE10 scintillation proximity assay (SPA), inhibition of rat PDE10 enzyme activity. Particulars: geometric mean of 2-4 determinations unless otherwise indicated (b: ≧5 determinations; c: single determination). It is filed as biochemical. In outline: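 SPA with fixed recombinant PDE10 (Sf21-expressed, Ni-NTA and Mono Q purified) converting ~20% of 20 nM ³H-cAMP in 50 mM TRIS pH 7.5, 1.3 mM MgCl2, 0.01% Brij, across an inhibitor range.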

Chain of rat PDE10 enzyme (Q9QYJ6 24-794): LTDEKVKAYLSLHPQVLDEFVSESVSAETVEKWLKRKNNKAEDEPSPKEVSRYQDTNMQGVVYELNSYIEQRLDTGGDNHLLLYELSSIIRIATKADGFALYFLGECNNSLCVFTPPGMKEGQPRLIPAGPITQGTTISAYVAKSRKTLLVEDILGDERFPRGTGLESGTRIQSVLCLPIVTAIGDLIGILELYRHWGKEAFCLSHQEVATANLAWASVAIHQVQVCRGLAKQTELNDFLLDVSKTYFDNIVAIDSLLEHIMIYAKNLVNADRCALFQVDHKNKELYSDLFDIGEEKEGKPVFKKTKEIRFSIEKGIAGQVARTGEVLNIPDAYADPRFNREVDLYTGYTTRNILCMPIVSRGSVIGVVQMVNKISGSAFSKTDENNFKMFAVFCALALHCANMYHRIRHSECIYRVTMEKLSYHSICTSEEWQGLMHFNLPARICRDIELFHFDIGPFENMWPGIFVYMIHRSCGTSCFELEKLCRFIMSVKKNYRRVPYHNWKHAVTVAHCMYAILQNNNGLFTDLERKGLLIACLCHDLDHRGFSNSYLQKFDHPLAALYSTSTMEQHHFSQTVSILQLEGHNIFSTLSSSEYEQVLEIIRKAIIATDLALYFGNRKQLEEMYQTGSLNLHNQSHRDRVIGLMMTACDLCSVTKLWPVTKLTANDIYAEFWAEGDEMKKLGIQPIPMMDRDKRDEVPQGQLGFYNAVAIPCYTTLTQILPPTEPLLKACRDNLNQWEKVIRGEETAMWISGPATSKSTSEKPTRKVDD

Turning to `Cc1nc([C@@H]2CCOC2)c2c(N3CCc4noc(C5CC5)c4C3)ncnn12` [Example 6, 4-(3-Cyclopropyl-6,7-dihydro[1,2]oxazolo[4,3-c]pyridin-5(4H)-yl)-7-methyl-5-[(3S)-tetrahydrofuran-3-yl]imidazo[5,1-f][1,2,4]triazine], the half-inhibitory concentration (IC50) in assay [1] was found to be 0.406 nM; at rat PDE10 enzyme it was 0.364 nM.
On to `Cc1nc([C@@H]2CCOC2)c2c(N3CCc4cnn(C(C)C)c4C3)ncnn12` [Example 91], for which the concentration for half-maximal inhibition (IC50) was found to be 0.61 nM in assay [1] and 0.793 nM at rat PDE10 enzyme.
Regarding `Cc1nc([C@@H]2CCOC2)c2c(N3Cc4c(cnn4C)C(C)C3)ncnn12` (stereo partly drawn) [Example 167, 4-(1,4-dimethyl-1,4,5,7-tetrahydro-6H-pyrazolo[3,4-c]pyridin-6-yl)-7-methyl-5-[(3S)-tetrahydrofuran-3-yl]imidazo[5,1-f][1,2,4]triazine], the figures for the IC50 (in assay [1]; on rat PDE10 enzyme) were 4.11 nM and 4.47 nM, respectively.
The like results for `Cc1nc([C@@H]2CCOC2)c2c(N3CCc4c(c(C(C)C)nn4C)C3)ncnn12` [Example 86, 7-methyl-4-[1-methyl-3-(propan-2-yl)-1,4,6,7-tetrahydro-5H-pyrazolo[4,3-c]pyridin-5-yl]-5-[(3S)-tetrahydrofuran-3-yl]imidazo[5,1-f][1,2,4]triazine] were, in that order, 0.0444 nM and 0.132 nM.
Turning to `Cc1nc([C@@H]2CCOC2)c2c(N3CCc4ccc(C5CC5)nc4C3)ncnn12` [Example 74, 2-cyclopropyl-7-{7-methyl-5-[(3S)-tetrahydrofuran-3-yl]imidazo[5,1-f][1,2,4]triazin-4-yl}-5,6,7,8-tetrahydro-1,7-naphthyridine], the IC50 in assay [1] is 0.211 nM; against rat PDE10 enzyme, 0.0896 nM.
For the compound `Cc1nc([C@H]2CCOC2)c2c(N3CCn4ncc(C(F)(F)F)c4C3)ncnn12` [Example 50, 7-methyl-5-[(3R)-tetrahydrofuran-3-yl]-4-[3-(trifluoromethyl)-6,7-dihydropyrazolo[1,5-a]pyrazin-5(4H)-yl]imidazo[5,1-f][1,2,4]triazine], the half-inhibitory concentration (IC50) in assay [1] was 3.27 nM; against rat PDE10 enzyme, 2.25 nM.
On to `Cc1nc(-c2ccccc2F)c2c(N3CCc4ccc(C(F)(F)F)nc4C3)ncnn12` [Example 159, 7-[5-(2-fluorophenyl)-7-methylimidazo[5,1-f][1,2,4]triazin-4-yl]-2-(trifluoromethyl)-5,6,7,8-tetrahydro-1,7-naphthyridine], for which the IC50 in assay [1] amounted to 21.2 nM; against rat PDE10 enzyme, 9.7 nM.
Consider `Cc1nc(-c2ccccc2F)c2c(N3CCc4cnn(C5CC5)c4C3)ncnn12` [Example 156, 4-(1-cyclopropyl-1,4,5,7-tetrahydro-6H-pyrazolo[3,4-c]pyridin-6-yl)-5-(2-fluorophenyl)-7-methylimidazo[5,1-f][1,2,4]triazine], for which the IC50 in assay [1] worked out at 1 nM; against rat PDE10 enzyme it was 0.905 nM.
With `Cc1nc([C@@H]2CCOC2)c2c(N3CCc4ccc(C(F)(F)F)nc4C3)ncnn12` [Example 157, 7-{7-methyl-5-[(3S)-tetrahydrofuran-3-yl]imidazo[5,1-f][1,2,4]triazin-4-yl}-2-(trifluoromethyl)-5,6,7,8-tetrahydro-1,7-naphthyridine], the IC50 in assay [1] was 0.295 nM; against rat PDE10 enzyme it was 0.196 nM.
Turning to `Cc1nc([C@@H]2CCOC2)c2c(N3CCc4ncccc4C3)ncnn12` [Example 47, 6-{7-methyl-5-[(3S)-tetrahydrofuran-3-yl]imidazo[5,1-f][1,2,4]triazin-4-yl}-5,6,7,8-tetrahydro-1,6-naphthyridine], the results for the half-inhibitory concentration (IC50) (in assay [1]; against rat PDE10 enzyme) were 1.42 nM and 0.758 nM, respectively.
`CCc1nn(C)c2c1CN(c1ncnn3c(C)nc([C@@H]4CCOC4)c13)CC2` [Example 18, 4-(3-ethyl-1-methyl-1,4,6,7-tetrahydro-5H-pyrazolo[4,3-c]pyridin-5-yl)-7-methyl-5-[(3S)-tetrahydrofuran-3-yl]imidazo[5,1-f][1,2,4]triazine]: the IC50 in assay [1] turned out to be 0.486 nM; against rat PDE10 enzyme, 0.147 nM.
For the compound `Cc1nc(-c2ccccc2F)c2c(N3CCc4nc(C5CC5)nc(C(F)(F)F)c4C3)ncnn12` [Example 90, 2-cyclopropyl-6-[5-(2-fluorophenyl)-7-methylimidazo[5,1-f][1,2,4]triazin-4-yl]-4-(trifluoromethyl)-5,6,7,8-tetrahydropyrido[4,3-d]pyrimidine], the figures for the IC50 (in assay [1]; against rat PDE10 enzyme) were 4.55 nM and 3.09 nM, respectively.
As for `COc1cc2c(cn1)CN(c1ncnn3c(C)nc(-c4ccccc4F)c13)CC2` [Example 71, 2-[5-(2-fluorophenyl)-7-methylimidazo[5,1-f][1,2,4]triazin-4-yl]-6-methoxy-1,2,3,4-tetrahydro-2,7-naphthyridine], the values for the IC50 (in assay [1]; on rat PDE10 enzyme) were 5.77 nM and 3.41 nM, respectively.
On to `Cc1nc([C@@H]2CCOC2)c2c(N3CCc4cccnc4C3)ncnn12` [Example 3, 7-{7-Methyl-5-[(3S)-tetrahydrofuran-3-yl]imidazo[5,1-f][1,2,4]triazin-4-yl}-5,6,7,8-tetrahydro-1,7-naphthyridine], for which the IC50 in assay [1] stood at 0.785 nM; at rat PDE10 enzyme, 0.607 nM.
Take `Cc1nc(C2CCOCC2)c2c(N3CCc4ncccc4C3)ncnn12` [Example 95, 6[7-methyl-5-(tetrahydro-2H-pyran-4-yl)imidazo[5,1-f][1,2,4]triazin-4-yl]-5,6,7,8-tetrahydro-1,6-naphthyridine]: the 50% inhibitory concentration (IC50) was determined as 8.82 nM in assay [1] and 10.1 nM against rat PDE10 enzyme.
For `Cc1nc2c(s1)CN(c1ncnn3c(C)nc([C@H]4CCOC4)c13)CC2` [Example 23, 7-methyl-4-(2-methyl-6,7-dihydro[1,3]thiazolo[5,4-c]pyridin-5(4H)-yl)-5-[(3R)-tetrahydrofuran-3-yl]imidazo[5,1-f][1,2,4]triazine], the IC50 in assay [1] was 2.53 nM; against rat PDE10 enzyme it was below 5.55 nM.
As to `CNc1ccc2c(n1)CCN(c1ncnn3c(C)nc([C@@H]4CCOC4)c13)C2` [Example 152, N-methyl-6-{7-methyl-5-[(3S)-tetrahydrofuran-3-yl]imidazo[5,1-f][1,2,4]triazin-4-yl}-5,6,7,8-tetrahydro-1,6-naphthyridin-2-amine], the IC50 in assay [1] was 0.333 nM; against rat PDE10 enzyme, below 0.13 nM.
As to `Cc1nc(-c2ccccc2F)c2c(N3CCc4c(c(C(F)(F)F)nn4C)C3)ncnn12` [Example 118, 5-(2-fluorophenyl)-7-methyl-4-[1-methyl-3-(trifluoromethyl)-1,4,6,7-tetrahydro-5H-pyrazolo[4,3-c]pyridin-5-yl]imidazo[5,1-f][1,2,4]triazine], the IC50 was determined as 1.28 nM in assay [1] and 0.943 nM at rat PDE10 enzyme.
Turning to `Cc1nc(C2CC2)nc2c1CN(c1ncnn3c(C)nc(-c4ccccc4F)c13)CC2` [Example 40, 2-cyclopropyl-6-[5-(2-fluorophenyl)-7-methylimidazo[5,1-f][1,2,4]triazin-4-yl]-4-methyl-5,6,7,8-tetrahydropyrido[4,3-d]pyrimidine], the IC50 turned out to be 0.98 nM in assay [1] and 0.442 nM at rat PDE10 enzyme.
For the compound `CCc1nc(C)nc2c1CN(c1ncnn3c(C)nc([C@@H]4CCOC4)c13)CC2` [Example 133, 4-ethyl-2-methyl-6-{7-methyl-5-[(3S)-tetrahydrofuran-3-yl]imidazo[5,1-f][1,2,4]triazin-4-yl}-5,6,7,8-tetrahydropyrido[4,3-d]pyrimidine], the IC50 in assay [1] was 0.625 nM; against rat PDE10 enzyme, 0.37 nM.
